Laboratory results published in PMC13372681, “A natural depsipeptide antibiotic binds the E-site of the bacterial ribosome” (Nature, 2026).
Where a SMILES comes first, the peptide text is derived from it. Bridges are numbered along the chain shown (N, C = ends). [ ]: non-standard residue; d: D form. dOrn = NCCC[C@@H](N)C(=O)O

Experiment: in vivo
Details: female, ICR CD-1, mouse, plasma, sc; for level at 8 h / level at 24 h: below limit of quantification
[1] = 50 mg/kg, Plasma concentration MKM, s.c. 50 mg/kg, Mouse 2
[2] = 50 mg/kg, Plasma concentration MKM, s.c. 50 mg/kg, Mouse 3
[3] = 50 mg/kg, Plasma concentration MKM, s.c. 50 mg/kg, Mouse 1

C[C@@H](O)[C@@H]1NC(=O)[C@@H](CCCNC(=N)N)NC(=O)[C@@H](CCCNC(=N)N)NC(=O)[C@@H](CC(N)=O)NC(=O)[C@@H](NC(=O)[C@@H](Cc2ccccc2)NC(=O)[C@@H](CCCN)NC(=O)[C@H](N)CCCNC(=N)N)[C@@H](C)OC(=O)[C@H](Cc2c[nH]cn2)NC1=O [MKM-A, manikomycin] (H-[dR][dOrn][dF]T[dN][dR][dR]TH; ester 4-C)
Cmax (50 mg kg^−1): 9130 ng/mL | half-life (50 mg kg^−1): ~36 min | level at 0.25 h (50 mg/kg, Plasma concentration MKM, s.c. 50 mg/kg, Mouse 1, linear range 1.6–50 µg/ml): 6650 ng/mL | level at 0.25 h [1]: 8580 ng/mL | level at 0.25 h [2]: 9540 ng/mL | level at 0.5 h (50 mg/kg, Plasma concentration MKM, s.c. 50 mg/kg, Time 0.5 (h), Mouse 3): 9170 ng/mL | level at 1 h [3]: 6890 ng/mL | level at 1 h [1]: 9080 ng/mL | level at 1 h [2]: 6930 ng/mL | level at 2 h [3]: 1470 ng/mL | level at 2 h [1]: 1060 ng/mL | level at 2 h [2]: 2600 ng/mL | level at 8 h [3]: 386 ng/mL | level at 8 h [1]: 55.8 ng/mL | level at 8 h [2]: 108 ng/mL | level at 24 h [3]: 71.5 ng/mL | level at 24 h [1]: 27.3 ng/mL | level at 24 h [2]: 68 ng/mL
